{"source": "patent US7459434B2", "about": "“Peptide interacting with anti-apoptotic proteins of the Bcl-2 family” (Les Laboratories Servier, priority 2003, dated 2008)", "key": {"Bcl-W": {"biological_target": "T1, Bcl-W (Homo sapiens, UniProt Q92843)", "T1 sequence (Q92843 1-193)": "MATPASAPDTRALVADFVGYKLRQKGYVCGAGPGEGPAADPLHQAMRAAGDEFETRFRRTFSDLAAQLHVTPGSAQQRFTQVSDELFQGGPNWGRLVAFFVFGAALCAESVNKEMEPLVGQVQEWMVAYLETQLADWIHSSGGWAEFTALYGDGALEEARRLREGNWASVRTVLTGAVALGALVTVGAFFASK", "test": "Fluorescence polarisation, Kd of peptide with GST-Bcl-W", "assay_type": "binding", "conditions": "15 nM peptide labelled with fluorescein at the N-terminal end; GST-Bcl-W 1 nM to 5 μM; pH 7.4; FIG. 3; read-out: Kd obtained with Bcl-W", "method": "(§1) 2) Fluorescence Polarisation: Determination of the Kd of the Interaction Between the Peptide Obtained in Example 1 and the Anti-Apoptotic Protein\n(§2) A 15 nM solution of the peptide obtained in Example 1 labelled with fluorescein at the N-terminal end is mixed with a solution containing the fusion protein GST-Bcl-XL or GST-Bcl-W at a concentration varying from 1 nM to 5 μM in a buffer containing Na2HPO4 20 mM pH 7.4, EDTA 1 mM, NaCl 50 mM, pluronic acid F-68 0.05%. The fluorescence polarisation is then measured by the En Vision apparatus (Packard Perkin-Elmer)."}, "Bcl-XL": {"biological_target": "Bcl-XL (Homo sapiens, UniProt Q07817)", "sequence (Q07817 whole entry, species assumed)": "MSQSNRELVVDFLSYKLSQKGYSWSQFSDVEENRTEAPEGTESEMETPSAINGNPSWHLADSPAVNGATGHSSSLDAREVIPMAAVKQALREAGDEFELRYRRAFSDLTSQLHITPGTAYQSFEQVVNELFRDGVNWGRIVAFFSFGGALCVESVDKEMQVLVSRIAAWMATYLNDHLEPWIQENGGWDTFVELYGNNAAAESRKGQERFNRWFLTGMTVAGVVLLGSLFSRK", "test": "Fluorescence polarisation, Kd of peptide with GST-Bcl-XL", "assay_type": "binding", "conditions": "15 nM peptide labelled with fluorescein at the N-terminal end; GST-Bcl-XL 1 nM to 5 μM; pH 7.4; FIG. 2; read-out: Kd obtained with Bcl-XL", "method": "as §1, §2"}}, "note": "No end group written: not given here.", "data": [{"sequence": "DTRRSMVFARHLREVGDEFRSR [peptide obtained in Example 1]", "values": [{"measurement": "Kd", "setting": "Bcl-W", "value": 411, "unit": "nM"}, {"measurement": "Kd", "setting": "Bcl-XL", "value": 215, "unit": "nM"}]}]}
